Like-named read-outs stand apart in the source and are kept apart here. Where no end group is shown, it is not given here. [ ]: non-standard residue; d: D form.

Experimental findings from publication PMC8944975, “Secretin Receptor as a Target in Gastrointestinal Cancer: Expression Analysis and Ligand Development” (Biomedicines, 2022) are described below.

For test [1], the target named is T1, human SCTR (Homo sapiens, UniProt P47872). Nature of the test: β-arr2-GFP translocation assay run in antagonist mode. The format is cell-based. The arrangement: expressed in transfected cells; host or cells: U2OS (human osteosarcoma), stably co-transfected with β-arrestin2-GFP. An excerpt:
U2OS-SCTR/β-arr2-GFP: human osteosarcoma cell line U2OS (purchased from ATCC/LGC Standards, Wesel, Germany) were stably transfected with plasmids encoding SCTR (Homo sapiens) and the fusion protein β-arrestin2-green fluorescent protein (GFP) (Rattus norvegicus-Aequorea victoria) (β-arr2-GFP).
For analysis of antagonistic effects on SCTR, a slightly modified protocol of the β-arr2-GFP translocation was used. […] For analysis, cells were terminally fixed and permeabilized as previously described. The additional monitoring of IDCC fluorescence in the near-infrared channel (667 nm) provided another measure for receptor binding and activation.

The target of test [2] is T1, human SCTR. Description: GloSensor cAMP assay, agonist mode. The class given is cell-based. The arrangement: expressed in transfected cells. As to conditions: for Emax: read-out: cAMP Production, Intrinsic Activity. Here is the method: Analysis of downstream signaling of activated SCTR via Gαs G-protein subunits was performed by monitoring intracellular cAMP utilizing the GloSensor system (Promega, Walldorf, Germany) in accordance with the supplier protocol. Measurements were performed using the EnVision Analyzer (PerkinElmer, Rodgau, Germany). For evaluation, concentration–response curves (signal-to-noise ratios plotted) employing the derived statistical mean and SD for estimation of the respective EC50 were calculated using Spotfire Decision Site (TIBCO, Palo Alto, CA, USA). For the analysis of antagonists, a modified protocol was used. Treatment of cells and dilution of the potential antagonist was performed as previously described. Ligand dilutions were added to cells and incubated at room temperature for 5 min. Successively, secretin was added at a final concentration of 0.5 nM for an additional 15 min at room temperature. The emitted chemiluminescence, which correlates with the cAMP concentration, was detected with suitable filters. Evaluation of data was performed as previously described with a calculation of half-maximal inhibitory concentration (IC50).
Background: cAMP levels reflect the balance of adenylyl cyclase and phosphodiesterase activity.

The target of test [3] is T1, human SCTR. Description: agonist-induced β-arr2-GFP translocation. The arrangement: expressed in transfected cells; host or cells: U2OS (human osteosarcoma), stably co-transfected with β-arrestin2-GFP. As to conditions: Supplementary Tables S1 and S2, decimal comma, '-' not detectable (Figure 4); for β-arrestin2-GFP agonism efficacy: % of wild-type secretin; for EC50: U2OS-SCTR/β-arr2-GFP cells, 20 min at 37 °C, mean of at least three independent experiments in duplicates, read-out: β-arrestin2-GFP agonism potency. The format is cell-based. Put shortly:
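U2OS cells stably co-expressing human SCTR and rat β-arrestin2-GFP, serum-starved 1 h, then given serial ligand dilutions for 20 min at 37 °C before fixation and DAPI staining.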

The target of test [4] is T2, human secretin receptor (SCTR) (human, UniProt P47872 23-440). Nature of the test: radioligand binding; saturation binding of I^125-secretin on U2OS-SCTR membrane isolates; total, unspecific and specific binding.
Test [5] addresses T2, human secretin receptor (SCTR).
Test [6] has the same target. Nature of the test: cell-based or functional assay.
The mark [7] stands for this setting: read-out: IC50, inhibition of β-arr2-GFP translocation (Table 2).
The mark [8] stands for this setting: Supplementary Table S2, GloSensor system, at least three independent experiments in duplicates, decimal comma, read-out: cAMP agonism potency.
Where [9] appears, read: GloSensor cAMP assay, at least 3 independent experiments in duplicates.

T1 sequence (P47872 23-440): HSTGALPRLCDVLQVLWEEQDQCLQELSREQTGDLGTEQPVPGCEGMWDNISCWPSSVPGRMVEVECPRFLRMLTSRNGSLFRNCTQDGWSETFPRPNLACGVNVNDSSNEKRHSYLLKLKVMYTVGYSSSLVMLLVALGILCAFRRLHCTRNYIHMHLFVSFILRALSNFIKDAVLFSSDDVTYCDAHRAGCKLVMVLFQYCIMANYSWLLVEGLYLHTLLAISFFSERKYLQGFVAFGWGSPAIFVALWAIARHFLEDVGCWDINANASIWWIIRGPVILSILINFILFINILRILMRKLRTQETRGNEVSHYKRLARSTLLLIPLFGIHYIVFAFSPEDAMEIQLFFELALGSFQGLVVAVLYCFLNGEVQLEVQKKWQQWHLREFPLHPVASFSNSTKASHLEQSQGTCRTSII
T2 sequence (P47872 23-440): as above

In the case of `CC(C)C[C@H](NC(=O)CNC(=O)[C@H](CCC(N)=O)NC(=O)[C@H](CC(C)C)NC(=O)[C@H](CC(C)C)NC(=O)[C@H](CCCNC(=N)N)NC(=O)[C@H](CCC(N)=O)NC(=O)[C@H](CC(C)C)NC(=O)[C@H](CCCNC(=N)N)NC(=O)[C@H](C)NC(=O)CNC(=O)[C@H](CCC(=O)O)NC(=O)[C@H](CCCNC(=N)N)NC(=O)[C@H](CC(C)C)NC(=O)[C@H](CCCNC(=N)N)NC(=O)[C@H](CO)NC(=O)[C@H](CC(C)C)NC(=O)[C@H](CCC(=O)O)NC(=O)[C@H](CO)NC(=O)[C@@H](NC(=O)[C@H](Cc1ccccc1)NC(=O)[C@@H](NC(=O)CNC(=O)[C@H](CC(=O)O)NC(=O)[C@@H](N)CO)[C@@H](C)O)[C@@H](C)O)C(=O)N[C@H](C(=O)O)C(C)C` [Peptide 115], the IC50 at human SCTR [1] (setting [7]) stood at 1280 ± 703 nM. In addition, the EC50 on human SCTR [2] (setting [8]) was found to be 22 nM.
In the case of `CC(C)C[C@H](NC(=O)CNC(=O)[C@H](CCC(N)=O)NC(=O)[C@H](CC(C)C)NC(=O)[C@H](CC(C)C)NC(=O)[C@H](CCCNC(=N)N)NC(=O)[C@H](CCC(N)=O)NC(=O)[C@H](CC(C)C)NC(=O)[C@H](CCCNC(=N)N)NC(=O)[C@H](C)NC(=O)CNC(=O)[C@H](CCC(=O)O)NC(=O)[C@H](CCCNC(=N)N)NC(=O)[C@H](CC(C)C)NC(=O)[C@H](CCCNC(=N)N)NC(=O)[C@H](CO)NC(=O)[C@H](CC(C)C)NC(=O)[C@H](CCC(=O)O)NC(=O)[C@H](CO)NC(=O)[C@@H](NC(=O)[C@H](Cc1ccccc1)NC(=O)[C@@H](NC(=O)CN)[C@@H](C)O)[C@@H](C)O)C(=O)N[C@H](C(=O)O)C(C)C` [Peptide 117], at human SCTR [1] (setting [7]), the IC50 is 1920 ± 355 nM. Further, at human SCTR [2] (setting [8]), the EC50 was 166 nM.
As for `CC(C)C[C@H](NC(=O)CNC(=O)[C@H](CCC(N)=O)NC(=O)[C@H](CC(C)C)NC(=O)[C@H](CC(C)C)NC(=O)[C@H](CCCNC(=N)N)NC(=O)[C@H](CCC(N)=O)NC(=O)[C@H](CC(C)C)NC(=O)[C@H](CCCNC(=N)N)NC(=O)[C@H](C)NC(=O)CNC(=O)[C@H](CCC(=O)O)NC(=O)[C@H](CCCNC(=N)N)NC(=O)[C@H](CC(C)C)NC(=O)[C@H](CCCNC(=N)N)NC(=O)[C@H](CO)NC(=O)[C@H](CC(C)C)NC(=O)[C@H](CCC(=O)O)NC(=O)[C@H](CO)NC(=O)[C@@H](N)[C@@H](C)O)C(=O)N[C@H](C(N)=O)C(C)C` [Peptide 120], the IC50 on human SCTR [1] (setting [7]) was more than 3000 nM; on human SCTR [1] (read-out: Inhibition of β-arr2-GFP Translocation, IC50), more than 3000 nM. Further, the Emax on human SCTR [2] (setting [9]) was found to be 90.6 ± 11.5%. The EC50 on human SCTR [2] (GloSensor cAMP assay, at least 3 independent experiments in duplicates, read-out: cAMP Production, EC50) is 3370 ± 1570 nM.
For the molecule `CC(C)C[C@H](NC(=O)CNC(=O)[C@H](CCC(N)=O)NC(=O)[C@H](CC(C)C)NC(=O)[C@H](CC(C)C)NC(=O)[C@H](CCCNC(=N)N)NC(=O)[C@H](CCC(N)=O)NC(=O)[C@H](CC(C)C)NC(=O)[C@H](CCCNC(=N)N)NC(=O)[C@H](C)NC(=O)CNC(=O)[C@H](CCC(=O)O)NC(=O)[C@H](CCCNC(=N)N)NC(=O)[C@H](CC(C)C)NC(=O)[C@H](CCCNC(=N)N)NC(=O)[C@H](CO)NC(=O)[C@H](CC(C)C)NC(=O)[C@H](CCC(=O)O)NC(=O)[C@@H](N)CO)C(=O)N[C@H](C(=O)O)C(C)C` [Peptide 121], the IC50 on human SCTR [1] (setting [7]) was 2730 ± 60 nM. Moreover, the EC50 on human SCTR [2] (setting [8]) is more than 10000 nM.
`CC(C)C[C@H](NC(=O)CNC(=O)[C@H](CCC(N)=O)NC(=O)[C@H](CC(C)C)NC(=O)[C@H](CC(C)C)NC(=O)[C@H](CCCNC(=N)N)NC(=O)[C@H](CCC(N)=O)NC(=O)[C@H](CC(C)C)NC(=O)[C@H](CCCNC(=N)N)NC(=O)[C@H](C)NC(=O)[C@H](C)NC(=O)[C@H](CCC(=O)O)NC(=O)[C@H](CCCNC(=N)N)NC(=O)[C@H](CC(C)C)NC(=O)[C@H](CCCNC(=N)N)NC(=O)[C@H](CO)NC(=O)[C@H](CC(C)C)NC(=O)[C@H](CCC(=O)O)NC(=O)[C@H](CO)NC(=O)[C@@H](NC(=O)[C@H](Cc1ccccc1)NC(=O)[C@H](N)CCCNC(=N)N)[C@@H](C)O)C(=O)N[C@H](C(=O)O)C(C)C` [Peptide 136]: on human SCTR [2] (setting [9]), the Emax amounted to 33.6 ± 0.9%.
For `CC(C)C[C@H](NC(=O)CNC(=O)[C@H](C)NC(=O)[C@H](CC(C)C)NC(=O)[C@H](CC(C)C)NC(=O)[C@H](CCCNC(=N)N)NC(=O)[C@H](CCC(N)=O)NC(=O)[C@H](CC(C)C)NC(=O)[C@H](CCCNC(=N)N)NC(=O)[C@H](C)NC(=O)CNC(=O)[C@H](CCC(=O)O)NC(=O)[C@H](CCCNC(=N)N)NC(=O)[C@H](CC(C)C)NC(=O)[C@H](CCCNC(=N)N)NC(=O)[C@H](CO)NC(=O)[C@H](CC(C)C)NC(=O)[C@H](CCC(=O)O)NC(=O)[C@H](CO)NC(=O)[C@@H](NC(=O)[C@H](Cc1ccccc1)NC(=O)[C@H](N)CCCNC(=N)N)[C@@H](C)O)C(=O)N[C@H](C(=O)O)C(C)C` [Peptide 143], at human SCTR [2] (setting [9]), the Emax is 27.5 ± 8.8%.
Take `CC(C)C[C@H](NC(=O)[C@H](C)NC(=O)[C@H](CCC(N)=O)NC(=O)[C@H](CC(C)C)NC(=O)[C@H](CC(C)C)NC(=O)[C@H](CCCNC(=N)N)NC(=O)[C@H](CCC(N)=O)NC(=O)[C@H](CC(C)C)NC(=O)[C@H](CCCNC(=N)N)NC(=O)[C@H](C)NC(=O)CNC(=O)[C@H](CCC(=O)O)NC(=O)[C@H](CCCNC(=N)N)NC(=O)[C@H](CC(C)C)NC(=O)[C@H](CCCNC(=N)N)NC(=O)[C@H](CO)NC(=O)[C@H](CC(C)C)NC(=O)[C@H](CCC(=O)O)NC(=O)[C@H](CO)NC(=O)[C@@H](NC(=O)[C@H](Cc1ccccc1)NC(=O)[C@H](N)CCCNC(=N)N)[C@@H](C)O)C(=O)N[C@H](C(=O)O)C(C)C` [Peptide 144]: the Emax at human SCTR [2] (setting [9]) is 31.1 ± 2.2%.
Turning to HSDGTFTSELSRLREGARLQ [Peptide 103], the EC50 on human SCTR [2] (setting [8]) came out at 875 nM.
Turning to HSDGTFTSELSRLREGARLQR [Peptide 102], the EC50 at human SCTR [2] (setting [8]) stood at 586 nM.
On the same count and under the same terms, for HSDGTFTSELSRLREGARLQRL [Peptide 101] the value was 57 nM.
Consider HSDGTFTSELSRLREGARLQRLL [Peptide 100], for which, at human SCTR [2] (setting [8]), the EC50 amounted to 7.63 nM. Besides, at human SCTR [3], the β-arrestin2-GFP agonism efficacy was 92,23 % Sec and the EC50 was found to be 131 nM.
On to HSDGTFTSELSRLREGARLQRLLQ [Peptide 99], for which the EC50 was 2.09 nM on human SCTR [2] (setting [8]) and 35.9 nM at human SCTR [3]. Besides, on human SCTR [3], the β-arrestin2-GFP agonism efficacy is on record as 103,60 % Sec.
In the case of HSDGTFTSELSRLREGARLQRLLQG [Peptide 98], the EC50 at human SCTR [2] (setting [8]) was 1.55 nM. Also, on human SCTR [3], the β-arrestin2-GFP agonism efficacy is 104,47 % Sec and the EC50 is 26.5 nM.
Turning to HSDGTFTSELSRLREGARLQRLLQGL [Peptide 97], the EC50 at human SCTR [2] (setting [8]) is 0.51 nM. Also, at human SCTR [3], the β-arrestin2-GFP agonism efficacy is reported as 109,53 % Sec and the EC50 amounted to 8.8 nM.
As a reminder, the Kd is a measure of binding affinity in units of concentration. With “^125I-labelled W27, Y28-secretin (peptide)”, in test [4], the Kd amounted to 0.074 nM.
On to TSELSRLREGARLQRLLQGLV [peptide 120, secretin(7–27)], for which, in test [5], the cAMP production (GloSensor), agonist mode: EC50 was determined as 3370 nM and the cAMP production (GloSensor), agonist mode: intrinsic activity [% of secretin] amounted to 90.6%.
As for [dR]FTSELSRLREAARLQRLLQGLV (ends and bridges not checked) [peptide 136], the “cAMP production (GloSensor), agonist mode: intrinsic activity [% of secretin]” value in test [6] was found to be 33.6%.
For the molecule [dR]FTSELSRLREGARLQRLLAGLV (ends and bridges not checked) [peptide 143], the “cAMP production (GloSensor), agonist mode: intrinsic activity [% of secretin]” value in test [6] is 27.5%.
On the same count and under the same terms, the value for [dR]FTSELSRLREGARLQRLLQALV (ends and bridges not checked) [peptide 144] was 31.1%.
